Results taken from patent US6335465B1, “Sterilized 5-aminolevulinic acid” (Dusa Pharmaceuticals, Inc., priority 1997, dated 2002).

Assay: Degradation of crystalline ALA under gamma radiation
Type: physicochemical
Details: gamma radiation dose of 25 kilograys or greater
From the text: This is significant, in that the United States Food and Drug Administration's (“FDA”) level of gamma irradiation for “overkill” is 25 kilograys. This is a level at which the FDA presumes, without evidence, that virtually all microorganisms have been killed.

| degradation of the ALA at high gamma dose | Structure (SMILES) |
| --- | --- |
| without detectable degradation | NCC(=O)CCC(=O)O [crystalline ALA, 5-aminolevulinic acid] |

Assay: Comparison of irradiated and non-irradiated ALA (spectroscopic, chromatographic, solution pH, solubility profile, calorimetry; FIGS. 2-14)
Type: physicochemical
Details: solution pH or solubility profile, except for the color
From the text: This is explained more fully below with respect to FIGS. 2 to 14.
Although not intending to be bound by any theory, it appears that the color imparted by irradiation is due to F-centers.
The calorimetric measurements of FIGS. 2 and 3 indicate that any major structural differences are present in quantities of less than 1% of the total ALA amount, or that the type of any structural modification is such that the sensitivity of the calorimetric assay to the change is below the capacity of the instrumentation.
Spectral reflectance as shown in FIGS. 4 and 8-10 is very sensitive to spectral differences at or near the surface, while photoacoustic spectroscopy (“PAS”) as shown in FIGS. 5-7 is sensitive to changes both at the surface and the interior of the crystal.
Subsequent analysis of the type described above with respect to FIGS. 2-14, confirmed that there was no discernible difference in structure or pharmacological activity between the irradiated examples and the non-irradiated control comparative examples.

| Structure (SMILES) | chemical properties versus non-irradiated ALA |
| --- | --- |
| NCC(=O)CCC(=O)O [irradiated crystalline ALA, 5-aminolevulinic acid] | has not been distinguished in any chemical property from non-irradiated ALA |

Assay: Storage stability of gamma irradiated ALA in the sealed bottle
Type: physicochemical
Details: despite the yellow color of the irradiated crystals
From the text: The present invention is based on the finding that sterile ALA can be made and prepared well in advance of its final use, despite the extreme degradation generally found with ALA as noted above.

| degradation after irradiation | Structure (SMILES) |
| --- | --- |
| had not been degraded | NCC(=O)CCC(=O)O [irradiated crystalline ALA, 5-aminolevulinic acid] |

Assay: Color of crystalline ALA hydrochloride in sealed vials after gamma irradiation
Type: physicochemical
Details: crystals in sealed 60 ml glass vials after gamma radiation at the target dose (0, 15 or 30 KGys)
Experimental: ALA hydrochloride salt was obtained from Sochinaz, S.A., Vionnez, Switzerland. 1.65 grams of ALA hydrochloride salt was placed into 60 ml glass vials. 360 vials of crystalline non-irradiated ALA were prepared. of these, 225 vials were sealed under ambient conditions,and were irradiated with gamma radiation as shown in Table 1. Crystalline ALA was first micronized by pulverizing into fine particles a few μm in diameter by a jet mill by Micro-Macinazione, S.A. to determine if further reducing the crystalline size would have any effect on the color of the irradiated ALA. After micronization, 1.65 grams of ALA hydrochloride salt was placed into 60 ml glass vials. A total of 270 vials of crystalline non-irradiated ALA were prepared.

| Structure (SMILES) | color |
| --- | --- |
| NCC(=O)CCC(=O)O [Comp. Ex. 1, 5-aminolevulinic acid] | off white |
| NCC(=O)CCC(=O)O [Comp. Ex. 2, 5-aminolevulinic acid] | off white |
| NCC(=O)CCC(=O)O [Comp. Ex. 3, 5-aminolevulinic acid] | off white |
| NCC(=O)CCC(=O)O [Comp. Ex. 4, 5-aminolevulinic acid] | off white |
| NCC(=O)CCC(=O)O [Example 1, 5-aminolevulinic acid] | yellow |
| NCC(=O)CCC(=O)O [Example 2, 5-aminolevulinic acid] | yellow |
| NCC(=O)CCC(=O)O [Example 3, 5-aminolevulinic acid] | yellow |
| NCC(=O)CCC(=O)O [Example 4, 5-aminolevulinic acid] | yellow |
| NCC(=O)CCC(=O)O [Example 5, 5-aminolevulinic acid] | yellow |
| NCC(=O)CCC(=O)O [Example 6, 5-aminolevulinic acid] | yellow |

The next lines start with the values.

| color | Structure (SMILES) |
| --- | --- |
| yellow | NCC(=O)CCC(=O)O [Example 7, 5-aminolevulinic acid] |
| yellow | NCC(=O)CCC(=O)O [Example 8, 5-aminolevulinic acid] |
| yellow | NCC(=O)CCC(=O)O [Example 9, 5-aminolevulinic acid] |
| yellow | NCC(=O)CCC(=O)O [Example 10, 5-aminolevulinic acid] |
